Results as given in ChEMBL document CHEMBL1201862, “PubChem BioAssay data set” (2004).
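Compound exposure: 48 hours, 5 concentrations, 96-well plates. GI50 = concentration required for 50% inhibition of growth.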 The source made the active and inactive calls. No stated cut-off is given here; in the data, active = GI50 up to about 1.1 µM and inactive = higher.

Legend:
Assay in all cases: growth of human tumour cells (NCI), 48 h
[1] = system: SK-OV-3
[2] = system: HCT-15
[3] = system: BT-549
[4] = system: A549
[5] = system: HOP-62
[6] = system: T47D
[7] = system: UO-31
[8] = system: K562
[9] = system: KM12
[10] = system: PC-3
[11] = system: MDA-N
[12] = system: ACHN
[13] = system: HCC 2998
[14] = system: NCI-H460
[15] = system: HCT-116
[16] = system: LOX IMVI
[17] = system: 786-0
[18] = system: A498
[19] = system: EKVX
[20] = system: MOLT-4

SMILES	GI50 [1]	GI50 [2] [µM]	GI50 [3]	GI50 [4]	GI50 [5]	GI50 [6]	GI50 [7]	GI50 [8]	GI50 [9]	GI50 [10]	GI50 [11]	GI50 [12]	GI50 [13]	GI50 [14]	GI50 [15]	GI50 [16]	GI50 [17]	GI50 [18]	GI50 [19]	GI50 [20]
Clc1ccccc1-c1nc2cc(C34CC5CC(CC(C5)C3)C4)ccc2[nH]1	16.1 µM (inactive)	41.9	20 µM (inactive)	11.4 µM (inactive)	14.3 µM (inactive)	10.9 µM (inactive)	14.7 µM (inactive)	27.5 µM (inactive)	53.2 µM (inactive)	15.1 µM (inactive)	44 µM (inactive)	11.6 µM (inactive)	49.3 µM (inactive)	30.3 µM (inactive)	55.1 µM (inactive)	12.4 µM (inactive)	12.1 µM (inactive)	25 µM (inactive)	29.1 µM (inactive)	79.8 µM (inactive)
C[C@@H]1CC[C@@H]2[C@@H](C1)O[C@@H]([C@@H](C)OCc1ccccc1)SC2(C)C	24.9 µM (inactive)	19.5	22.1 µM (inactive)	29.9 µM (inactive)	16.4 µM (inactive)	14.7 µM (inactive)	16.4 µM (inactive)	18.1 µM (inactive)	18.7 µM (inactive)	19.5 µM (inactive)	18.4 µM (inactive)	17.3 µM (inactive)	17.9 µM (inactive)	20.9 µM (inactive)	18.3 µM (inactive)	21.2 µM (inactive)	19.2 µM (inactive)	17.3 µM (inactive)	31.8 µM (inactive)	16.1 µM (inactive)
COc1cc(-c2oc3ccccc3c(=O)c2O)cc(OC)c1OC	43.4 µM (inactive)	4.62	> 55.2 µM (inactive)	9.02 µM (inactive)	6.04 µM (inactive)	6 µM (inactive)	4.63 µM (inactive)	6.71 µM (inactive)	> 100 µM (inactive)	11.3 µM (inactive)	> 26.1 µM (inactive)	6.9 µM (inactive)	> 100 µM (inactive)	4.19 µM (inactive)	10.3 µM (inactive)	6.24 µM (inactive)	9.75 µM (inactive)	22 µM (inactive)	25.3 µM (inactive)	4.72 µM (inactive)
CCOc1cccc(/C=N\c2ccccc2SSc2ccccc2/N=C\c2cccc(OCC)c2O)c1O	23.2 µM (inactive)	3.44	1.58 µM (inactive)	10.7 µM (inactive)	6.92 µM (inactive)	1.26 µM (inactive)	13.7 µM (inactive)	6.55 µM (inactive)	6.82 µM (inactive)	3.17 µM (inactive)	14.2 µM (inactive)	13.5 µM (inactive)	17.2 µM (inactive)	5.48 µM (inactive)	1.73 µM (inactive)	4.47 µM (inactive)	7.6 µM (inactive)	24.2 µM (inactive)	3.86 µM (inactive)	3.38 µM (inactive)
Fc1ccc(C(OCCN2CCN(CCCCl)CC2)c2ccc(F)cc2)cc1	48.6 µM (inactive)	17.3	18.6 µM (inactive)	35.5 µM (inactive)	33 µM (inactive)	22.3 µM (inactive)	18.4 µM (inactive)	15.3 µM (inactive)	18.3 µM (inactive)	34.8 µM (inactive)	20.7 µM (inactive)	46 µM (inactive)	18.5 µM (inactive)	21.8 µM (inactive)	19.5 µM (inactive)	16.8 µM (inactive)	28.4 µM (inactive)	20.9 µM (inactive)	41.1 µM (inactive)	19.9 µM (inactive)
